Consider 31 compounds from ChEMBL document CHEMBL1201862, “PubChem BioAssay data set” (2004).

“And” between values parts separate entries of the source, which are not always exact repeats. Equal values may be shown once. The source made the active and inactive calls. A value given as a limit tells only on which side of the number the result lay.

Targets include Cytochrome P450 3A4 (Homo sapiens, UniProt P08684); Cytochrome P450 2D6 (Homo sapiens, UniProt P10635); Cytochrome P450 2C9 (Homo sapiens, UniProt P11712).
The target in the next assay is Cytochrome P450 2C19 (Homo sapiens, UniProt P33261). The experiment in a line: Cytochrome panel assay with activity outcomes. Panel member name: p450-cyp2c19 Compounds with AC50 equal or less than 10 uM are considered active. The format is functional. The following applies: read-out: AC50.
Cytochrome P450 2C19, sequence (P33261 whole entry): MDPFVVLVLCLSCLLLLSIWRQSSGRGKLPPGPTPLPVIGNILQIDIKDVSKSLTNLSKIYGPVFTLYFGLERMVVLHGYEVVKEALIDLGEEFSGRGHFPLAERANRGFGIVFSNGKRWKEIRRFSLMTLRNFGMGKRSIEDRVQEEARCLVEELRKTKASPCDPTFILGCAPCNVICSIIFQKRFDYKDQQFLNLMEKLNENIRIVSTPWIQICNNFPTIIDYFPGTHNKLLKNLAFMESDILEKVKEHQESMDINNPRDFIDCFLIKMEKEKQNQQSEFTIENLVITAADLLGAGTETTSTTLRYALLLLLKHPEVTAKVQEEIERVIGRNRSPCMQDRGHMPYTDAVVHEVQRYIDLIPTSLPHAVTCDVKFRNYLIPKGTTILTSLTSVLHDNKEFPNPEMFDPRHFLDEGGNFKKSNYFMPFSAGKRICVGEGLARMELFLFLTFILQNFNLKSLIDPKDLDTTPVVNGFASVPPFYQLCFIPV
Assay [1] has as its target T1, Replicative DNA helicase DnaB (Mycobacterium tuberculosis, UniProt P9WMR3).
T1 sequence (P9WMR3 whole entry): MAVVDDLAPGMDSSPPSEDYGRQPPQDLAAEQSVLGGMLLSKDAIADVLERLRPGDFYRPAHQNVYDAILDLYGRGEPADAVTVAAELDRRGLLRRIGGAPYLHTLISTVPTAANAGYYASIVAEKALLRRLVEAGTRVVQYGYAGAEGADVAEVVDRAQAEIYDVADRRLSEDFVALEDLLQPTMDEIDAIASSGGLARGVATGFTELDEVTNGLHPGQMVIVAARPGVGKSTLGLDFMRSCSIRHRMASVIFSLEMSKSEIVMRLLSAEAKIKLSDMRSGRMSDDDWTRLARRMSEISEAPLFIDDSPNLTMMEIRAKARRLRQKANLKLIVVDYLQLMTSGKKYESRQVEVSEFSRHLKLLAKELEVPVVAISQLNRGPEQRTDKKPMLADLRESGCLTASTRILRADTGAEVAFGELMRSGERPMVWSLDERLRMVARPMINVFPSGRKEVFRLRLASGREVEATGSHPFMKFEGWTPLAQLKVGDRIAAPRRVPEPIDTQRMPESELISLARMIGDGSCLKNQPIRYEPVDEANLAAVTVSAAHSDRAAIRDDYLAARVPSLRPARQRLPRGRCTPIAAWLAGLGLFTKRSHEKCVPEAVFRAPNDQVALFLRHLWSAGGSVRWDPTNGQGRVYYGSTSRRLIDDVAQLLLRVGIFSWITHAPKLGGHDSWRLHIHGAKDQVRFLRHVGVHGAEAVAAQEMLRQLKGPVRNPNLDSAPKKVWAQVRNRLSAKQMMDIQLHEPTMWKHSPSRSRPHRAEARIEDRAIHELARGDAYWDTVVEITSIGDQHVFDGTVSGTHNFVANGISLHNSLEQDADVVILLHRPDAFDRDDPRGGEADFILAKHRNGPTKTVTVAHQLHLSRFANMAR
The experiment in a line: DnaB intein splicing inhibitors, dose response, biochemical, cell-free fluorescence (AID 449749). The assay is classed as functional.

In a further assay the target is T2, Protein RecA (Mycobacterium tuberculosis, UniProt P9WHJ3).
T2 sequence (P9WHJ3 whole entry): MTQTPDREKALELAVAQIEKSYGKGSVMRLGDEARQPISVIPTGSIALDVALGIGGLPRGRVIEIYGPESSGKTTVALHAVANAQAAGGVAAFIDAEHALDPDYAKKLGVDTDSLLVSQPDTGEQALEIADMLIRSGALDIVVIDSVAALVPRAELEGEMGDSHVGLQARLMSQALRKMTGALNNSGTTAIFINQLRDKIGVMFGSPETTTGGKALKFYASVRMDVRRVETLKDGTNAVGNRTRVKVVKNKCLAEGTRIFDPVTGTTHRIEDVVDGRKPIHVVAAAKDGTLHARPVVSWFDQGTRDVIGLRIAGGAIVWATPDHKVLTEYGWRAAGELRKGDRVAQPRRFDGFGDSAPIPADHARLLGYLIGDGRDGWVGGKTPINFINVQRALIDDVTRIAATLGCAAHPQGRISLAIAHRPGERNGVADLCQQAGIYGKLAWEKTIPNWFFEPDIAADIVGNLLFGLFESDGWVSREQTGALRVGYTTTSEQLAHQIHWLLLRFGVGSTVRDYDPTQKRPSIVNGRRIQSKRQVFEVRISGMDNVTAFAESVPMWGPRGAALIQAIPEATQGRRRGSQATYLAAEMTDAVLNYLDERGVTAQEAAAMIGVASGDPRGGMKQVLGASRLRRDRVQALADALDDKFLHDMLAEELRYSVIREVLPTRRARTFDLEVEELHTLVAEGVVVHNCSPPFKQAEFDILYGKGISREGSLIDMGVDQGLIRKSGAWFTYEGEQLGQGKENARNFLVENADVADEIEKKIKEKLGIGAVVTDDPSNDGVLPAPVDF
Briefly: Fluorescence Cell-Free Homogeneous Dose Retest to Identify Inhibitors of RecA-Intein Splicing Activity. [Related pubchem assays (depositor defined):AID2097, AID2223, AID489010, AID492950]. The assay is classed as functional.

Assay [2] deals with T3, Heat shock factor protein 1 (Mus musculus, UniProt P38532).
T3 sequence (P38532 whole entry): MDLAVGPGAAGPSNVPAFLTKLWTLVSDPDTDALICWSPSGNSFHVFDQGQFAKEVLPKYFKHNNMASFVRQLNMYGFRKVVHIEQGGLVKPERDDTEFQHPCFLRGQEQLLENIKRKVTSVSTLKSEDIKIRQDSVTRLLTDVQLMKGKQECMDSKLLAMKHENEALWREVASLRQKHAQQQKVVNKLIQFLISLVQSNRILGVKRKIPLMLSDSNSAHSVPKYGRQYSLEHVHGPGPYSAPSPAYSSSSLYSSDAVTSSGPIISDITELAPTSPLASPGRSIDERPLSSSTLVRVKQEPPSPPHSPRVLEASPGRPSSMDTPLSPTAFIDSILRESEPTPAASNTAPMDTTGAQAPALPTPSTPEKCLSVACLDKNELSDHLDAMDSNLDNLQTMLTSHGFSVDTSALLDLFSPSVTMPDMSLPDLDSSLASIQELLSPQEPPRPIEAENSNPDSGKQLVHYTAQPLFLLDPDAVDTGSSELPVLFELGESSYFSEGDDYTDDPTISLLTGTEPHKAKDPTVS
Briefly: decrease of HSF1-responsive luciferase luminescence – cell-based, NIH3T3, dose retest, confirmation (AID 2382).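 Also: NIH3T3 fibroblasts with HSF1-driven luciferase reporter stressed by proteasome inhibitor MG132; luminescence from HSF1-driven luciferase expression after 8 hours of MG132 stress.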 The format is functional.

Assay [3] is described as follows: fluconazole-exposed Candida albicans growth modulators – fluorescence, retest, confirmation (AID 2467). The format is functional, cell-based.

Cytochrome P450 2D6, sequence (P10635 whole entry): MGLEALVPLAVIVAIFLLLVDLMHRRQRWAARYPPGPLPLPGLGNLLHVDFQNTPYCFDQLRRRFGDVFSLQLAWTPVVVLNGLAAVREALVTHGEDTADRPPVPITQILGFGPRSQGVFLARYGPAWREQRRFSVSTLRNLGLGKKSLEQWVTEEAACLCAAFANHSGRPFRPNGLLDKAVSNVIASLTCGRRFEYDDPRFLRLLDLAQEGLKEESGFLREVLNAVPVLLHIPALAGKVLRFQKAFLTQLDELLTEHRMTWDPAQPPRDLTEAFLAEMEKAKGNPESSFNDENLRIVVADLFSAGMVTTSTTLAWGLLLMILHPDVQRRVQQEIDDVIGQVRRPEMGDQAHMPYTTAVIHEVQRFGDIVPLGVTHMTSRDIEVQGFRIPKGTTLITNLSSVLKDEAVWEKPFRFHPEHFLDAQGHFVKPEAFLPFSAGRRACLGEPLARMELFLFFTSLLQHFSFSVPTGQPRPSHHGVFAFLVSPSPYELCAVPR
Cytochrome P450 2C9, sequence (P11712 whole entry): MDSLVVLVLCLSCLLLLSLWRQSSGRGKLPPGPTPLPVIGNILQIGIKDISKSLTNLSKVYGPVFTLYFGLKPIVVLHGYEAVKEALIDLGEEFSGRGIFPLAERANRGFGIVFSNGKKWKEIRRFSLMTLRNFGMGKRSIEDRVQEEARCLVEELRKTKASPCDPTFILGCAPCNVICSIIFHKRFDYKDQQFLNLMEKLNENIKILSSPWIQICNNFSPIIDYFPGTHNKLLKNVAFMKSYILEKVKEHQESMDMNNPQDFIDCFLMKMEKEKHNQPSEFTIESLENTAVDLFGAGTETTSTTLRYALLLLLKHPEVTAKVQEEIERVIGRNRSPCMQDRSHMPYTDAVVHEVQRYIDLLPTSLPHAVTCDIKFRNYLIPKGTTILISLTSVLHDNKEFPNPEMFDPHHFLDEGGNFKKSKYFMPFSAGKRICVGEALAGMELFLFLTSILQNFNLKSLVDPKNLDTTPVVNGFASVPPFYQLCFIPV
Cytochrome P450 3A4, sequence (P08684 whole entry): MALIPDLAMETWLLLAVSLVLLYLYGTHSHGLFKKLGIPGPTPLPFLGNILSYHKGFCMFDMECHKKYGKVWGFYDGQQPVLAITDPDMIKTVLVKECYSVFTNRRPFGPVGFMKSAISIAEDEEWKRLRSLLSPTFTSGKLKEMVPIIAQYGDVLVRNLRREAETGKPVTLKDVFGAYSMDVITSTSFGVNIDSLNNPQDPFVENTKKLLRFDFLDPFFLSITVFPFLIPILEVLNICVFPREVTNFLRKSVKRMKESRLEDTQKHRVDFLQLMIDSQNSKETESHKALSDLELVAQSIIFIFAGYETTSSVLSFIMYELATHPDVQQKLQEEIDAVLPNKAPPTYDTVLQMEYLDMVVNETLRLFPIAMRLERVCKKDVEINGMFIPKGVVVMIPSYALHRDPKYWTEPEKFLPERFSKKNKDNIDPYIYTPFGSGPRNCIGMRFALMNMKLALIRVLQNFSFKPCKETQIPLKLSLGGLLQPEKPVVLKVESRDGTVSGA

Broadly, the AC50 is the midpoint of the concentration-response curve, whichever way the signal moves. As for `O=C(c1c(O)nc2cc(Cl)ccc2c1O)C1CC1`, the AC50 on Cytochrome P450 3A4 is 0.00316 µM (inconclusive).

With `CN(Cc1ccco1)C(=O)C1CCC(=O)N1Cc1ccc(F)cc1` (stereo unspecified), the AC50 on Cytochrome P450 2D6 is 25.1 µM (inconclusive).

Take `N#CCCSC(=S)[C@H]1CCCC1=N`: the AC50 at Cytochrome P450 3A4 is 2.51 µM (inconclusive); at Cytochrome P450 2C19 it was 5.01 µM (inconclusive).

`FC(F)(F)c1ccccc1-c1nc(NC2CC2)c2ccccc2n1`: the AC50 on Cytochrome P450 2D6 was 31.6 µM (inconclusive); at Cytochrome P450 2C19 it was 10 µM (inconclusive).

In the case of `CN1CCN(c2ncc3nc(-c4cn(C)c5ccccc45)c(=O)n(CCC#N)c3n2)CC1`, the AC50 on Cytochrome P450 3A4 was 25.1 µM (inconclusive); on Cytochrome P450 2C9, 39.8 µM (inconclusive); on Cytochrome P450 2D6, 39.8 µM (inconclusive); on Cytochrome P450 2C19, 39.8 µM (inconclusive).

Take `COc1ccc(-c2cc(C(F)(F)F)n3nc(C(=O)NCc4ccco4)c(Cl)c3n2)cc1`: the results for the AC50 on Cytochrome P450 3A4 and on Cytochrome P450 2C19 were 3.16 µM (inconclusive) and 1.78 µM (inconclusive), respectively.

For orientation: EC50 means the concentration needed to bring the measured effect to its halfway point. With `CCOc1cc(/C=C(\C#N)C(=O)Nc2cccc(C(=O)O)c2)cc(Br)c1OC(=O)c1ccc(OC)cc1`, in assay [1], the AC50 is 4.04 µM (active). The EC50 at Protein RecA is 13.2 µM (active).

For the compound `COC(=O)[C@H]1C[C@@H]1[C@H](NC(=O)c1cnccn1)c1ccccc1`, the AC50 at Cytochrome P450 3A4 was 7.94 µM (inconclusive).

Take `CCOc1cc(/C=C2\C(=N)N3N=C(S(=O)(=O)CC)SC3=NC2=O)ccc1OC(=O)c1ccco1`: the AC50 in assay [1] was > 380 µM (inactive). For the same compound, on Protein RecA, the EC50 is 22.1 µM (active).

In the case of `CC[C@@]1(c2ccc(N)cc2)CCC(=O)NC1=O`, the AC50 on Cytochrome P450 3A4 is 12.6 µM (inconclusive) and 10 µM (inconclusive).

As for `O=C1c2ccccc2CC[C@H]1CNCCc1ccc(O)cc1`, the AC50 at Cytochrome P450 3A4 is 7.94 µM (inconclusive); at Cytochrome P450 2C9, 39.8 µM (inconclusive); at Cytochrome P450 2C19 it was 31.6 µM (inconclusive).

Take `CCOc1ccc(C(=O)C2=C(O)C(=O)N(CCCn3ccnc3)C2c2cccs2)cc1Cl` (stereo unspecified): in assay [2], the EC50 was > 195 µM (not active). Besides, the AC50 on Cytochrome P450 2D6 was 14.1 µM (inconclusive).

Regarding `c1nc(NC2CCNCC2)c2cc(-c3ccc4c(c3)OCO4)ccc2n1`, the AC50 at Cytochrome P450 2D6 is 20 µM (inconclusive).

Consider `Cc1ccc(S(=O)(=O)O[C@H]2CN3CCC2CC3)cc1`, for which the AC50 on Cytochrome P450 2D6 is 3.98 µM (inconclusive).

Regarding `CCOC(=O)C1CCCN(C(=O)CCn2nc(-c3ccccc3)ccc2=O)C1` (stereo unspecified), the values for the AC50 at Cytochrome P450 3A4 and on Cytochrome P450 2C9 were 17.8 µM (inconclusive) and 31.6 µM (inconclusive), respectively.

For `Cc1cc(OCC(=O)OC(C)C)c2c3c(c(=O)oc2c1)CCCC3`, the AC50 at Cytochrome P450 3A4 is 28.2 µM (inconclusive).

As to `COc1cccc(Nc2ncc3nc(-c4ccc(Cl)cc4)c(=O)n(C[C@H]4CCCO4)c3n2)c1`, the AC50 at Cytochrome P450 3A4 is 15.8 µM (inconclusive).

For `CNC(=O)/C=C1\NC(C)(C)Cc2c1ccc1ccccc21`, the results for the AC50 at Cytochrome P450 3A4 and on Cytochrome P450 2C9 were 15.8 µM (inconclusive) and 5.01 µM (inconclusive), respectively.

Turning to `O=[N+]([O-])c1ccc2c(/N=N\c3ccc4ccccc4c3O)c(O)cc(S(=O)(=O)O)c2c1`, the AC50 on Cytochrome P450 3A4 is 3.98 µM (inconclusive); at Cytochrome P450 2D6, 0.631 µM (inconclusive); at Cytochrome P450 2C19 it was 2.51 µM (inconclusive).

For `Cc1ccc(S(=O)(=O)n2c3ccccc3c3nnc(C(=O)c4ccccc4)nc32)cc1`, the results for the AC50 at Cytochrome P450 2C9 and on Cytochrome P450 2C19 were 3.16 µM (inconclusive) and 0.0126 µM (inconclusive), respectively.

On to `Cc1[nH]c2ccccc2c1C(c1ccccn1)N1CCC(C)CC1` (stereo unspecified), for which, on Cytochrome P450 2D6, the AC50 is 25.1 µM (inconclusive).

As to `Nc1ccc(SCCN2C(=O)c3ccccc3C2=O)cc1`, in assay [3], the EC50 is on record as > 38 µM (not active).

With `Cc1cc(C)c(S(C)(=O)=O)c(Oc2cccc(C(F)(F)F)c2)n1`, the AC50 in assay [1] was 213 µM (active). Besides, on Protein RecA, the EC50 is > 380 µM (inactive).

For the compound `COc1cccc(C(=O)O/N=C(\N)c2ccc([N+](=O)[O-])cc2)c1OC`, the AC50 in assay [1] is > 380 µM (inactive). At Protein RecA, the EC50 was > 380 µM (inactive).

In the case of `COCCn1c(C(=O)N(C)C)cc2c1C[C@H]1CN(C(=O)c3ccccc3)[C@@](Cc3ccc(F)cc3)(C(=O)OC)[C@@H]21`, the results for the AC50 at Cytochrome P450 2C9 and at Cytochrome P450 2C19 were 25.1 µM (inconclusive) and 39.8 µM (inconclusive), respectively.

As to `COc1ncc2nc(-c3cc(F)cc(F)c3)c(=O)n(CCC#N)c2n1`, the AC50 at Cytochrome P450 3A4 was 20 µM (inconclusive).

In the case of `Cn1ncc([N+](=O)[O-])c1C(=O)Nc1ccc2c(c1)OCCO2`, the AC50 on Cytochrome P450 2C9 is 11.2 µM (inconclusive); on Cytochrome P450 2D6 it was 12.6 µM (inconclusive); on Cytochrome P450 2C19, 0.0355 µM (inconclusive).

Take `C/C(CC(=O)Nc1cc(C)ccn1)=N\NC(=O)C(=O)NC(C)C`: the AC50 in assay [1] is 19.6 µM (active). Moreover, the EC50 at Protein RecA was 4.48 µM (active).

Turning to `C/C(=C\C(=O)c1ccc(Cl)cc1)NCc1ccc2c(c1)OCO2`, the AC50 on Cytochrome P450 3A4 was 0.794 µM (inconclusive); at Cytochrome P450 2D6 it was 5.01 µM (inconclusive).

Take `COc1ccccc1CNc1ncnc2ccc(-c3ccc(C(=O)N(C)C)cc3)cc12`: the AC50 at Cytochrome P450 2D6 is 39.8 µM (inconclusive); at Cytochrome P450 2C19, 20 µM (inconclusive).

Regarding `CCCCCCCCC(=O)NCc1ccc(O)c(OC)c1` [NONIVAMIDE], the figures for the AC50 on Cytochrome P450 2D6 and at Cytochrome P450 2C19 were 25.1 µM (inconclusive) and 7.94 µM (inconclusive), respectively.
